Reference: PubChem BioAssay (NCI)
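Tested at 5 concentrations; 48 h exposure; 96-well plates; endpoints linearly interpolated, else capped at highest concentration. At the GI50, growth is halved. TGI marks complete inhibition of growth.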

Assays:
Test in all cases: NCI-60 cell line screen, 48 h
[1] = test system: A498 renal
[2] = test system: SF-295 CNS
[3] = test system: COLO 205 colon
[4] = test system: K-562 leukemia
[5] = test system: IGROV1 ovarian
[6] = test system: OVCAR-4 ovarian
[7] = test system: MDA-MB-231 breast
[8] = test system: SN12C renal
[9] = test system: MOLT-4 leukemia
[10] = test system: DU-145 prostate
[11] = test system: HOP-92 NSCLC
[12] = test system: SK-MEL-5 melanoma
[13] = test system: HOP-62 NSCLC
[14] = test system: RPMI-8226 leukemia
[15] = test system: SNB-19 CNS
[16] = test system: HCT-116 colon
[17] = test system: M14 melanoma
[18] = test system: MDA-MB-435
[19] = test system: SW-620 colon
[20] = test system: HCT-15 colon
[21] = test system: A549 NSCLC
[22] = test system: LOX IMVI melanoma
[23] = test system: HL-60(TB) leukemia
[24] = test system: UACC-62 melanoma
[25] = test system: RXF 393 renal
[26] = test system: OVCAR-8 ovarian
[27] = test system: UO-31 renal
[28] = test system: KM12 colon
[29] = test system: NCI-H226 lung
[30] = test system: SR leukemia
[31] = test system: TK-10 renal
[32] = test system: BT-549 breast
[33] = test system: MALME-3M melanoma
[34] = test system: HT29 colon
[35] = test system: HCC-2998 colon
[36] = test system: SNB-75 CNS
[37] = test system: CCRF-CEM leukemia
[38] = test system: OVCAR-3 ovarian
[39] = test system: MCF7 breast
[40] = test system: HS 578T breast
[41] = test system: NCI-H522 lung
[42] = test system: SK-OV-3 ovarian
[43] = test system: 786-0 renal
[44] = test system: NCI-H23 lung
[45] = test system: U251 CNS
[46] = test system: NCI/ADR-RES ovarian
[47] = test system: CAKI-1 renal
[48] = test system: SF-268 CNS
[49] = test system: NCI-H460 lung
[50] = test system: T-47D breast
[51] = test system: UACC-257 melanoma
[52] = test system: PC-3 prostate
[53] = test system: SK-MEL-2 melanoma
[54] = test system: SK-MEL-28 melanoma
[55] = test system: SF-539 CNS
[56] = test system: EKVX NSCLC
[57] = test system: ACHN renal
[58] = test system: OVCAR-5 ovarian

Clc1ccc2c(N3CCN(c4ccnc(NC5CCCCC5)n4)CC3)ccnc2c1
GI50 [1]: 1.79 µM
TGI [1]: 8.22 µM
GI50 [2]: 1.91 µM
TGI [2]: 3.79 µM
GI50 [3]: 1.77 µM
TGI [3]: 3.43 µM
GI50 [4]: 2.19 µM
TGI [4]: 5.43 µM
GI50 [5]: 2.27 µM
TGI [5]: 5.04 µM
GI50 [6]: 2.56 µM
TGI [6]: 11.2 µM
GI50 [7]: 2.01 µM
TGI [7]: 3.97 µM
GI50 [8]: 1.79 µM
TGI [8]: 3.6 µM
GI50 [9]: 2.13 µM
TGI [9]: 5.47 µM
GI50 [10]: 3.78 µM
TGI [10]: 13 µM
GI50 [11]: 1.68 µM
TGI [11]: 4.99 µM
GI50 [12]: 1.7 µM
TGI [12]: 3.14 µM
GI50 [13]: 2.35 µM
TGI [13]: 5.73 µM
GI50 [14]: 1.81 µM
TGI [14]: 4.69 µM
GI50 [15]: 2.47 µM
TGI [15]: 7.33 µM
GI50 [16]: 1.36 µM
TGI [16]: 2.8 µM
GI50 [17]: 1.78 µM
TGI [17]: 3.42 µM
GI50 [18]: 1.91 µM
TGI [18]: 3.88 µM
GI50 [19]: 1.68 µM
TGI [19]: 3.72 µM
GI50 [20]: 2.26 µM
TGI [20]: 6.74 µM
GI50 [21]: 3.17 µM
TGI [21]: 10.8 µM
GI50 [22]: 1.92 µM
TGI [22]: 3.46 µM
GI50 [23]: 2.22 µM
TGI [23]: 5.07 µM
GI50 [24]: 1.7 µM
TGI [24]: 3.26 µM
GI50 [25]: 1.84 µM
TGI [25]: 3.54 µM
GI50 [26]: 3.27 µM
TGI [26]: 12.6 µM
GI50 [27]: 1.31 µM
TGI [27]: 2.87 µM
GI50 [28]: 2.16 µM
TGI [28]: 4.49 µM
GI50 [29]: 3.41 µM
TGI [29]: 16.6 µM
GI50 [30]: 1.83 µM
TGI [30]: 4.48 µM
GI50 [31]: 2.29 µM
TGI [31]: 5.16 µM
GI50 [32]: 1.75 µM
TGI [32]: 3.31 µM
GI50 [33]: 1.98 µM
TGI [33]: 4.02 µM
GI50 [34]: 1.85 µM
TGI [34]: 4.06 µM
GI50 [35]: 1.93 µM
TGI [35]: 3.88 µM
GI50 [36]: 2.16 µM
TGI [36]: 6.74 µM
GI50 [37]: 2.07 µM
TGI [37]: 6.07 µM
GI50 [38]: 1.74 µM
TGI [38]: 3.49 µM
GI50 [39]: 1.76 µM
TGI [39]: 4.02 µM
GI50 [40]: 2.41 µM
TGI [40]: 8.08 µM
GI50 [41]: 1.97 µM
TGI [41]: 3.84 µM
GI50 [42]: 4.2 µM
TGI [42]: 14 µM
GI50 [43]: 1.69 µM
TGI [43]: 3.14 µM
GI50 [44]: 3.4 µM
TGI [44]: 9.71 µM
GI50 [45]: 1.62 µM
TGI [45]: 3 µM
GI50 [46]: 2.44 µM
TGI [46]: 6.66 µM
GI50 [47]: 2.21 µM
TGI [47]: 6.87 µM
GI50 [48]: 3.65 µM
TGI [48]: 13.3 µM
GI50 [49]: 2.05 µM
TGI [49]: 4.23 µM
GI50 [50]: 2.11 µM
TGI [50]: 5.5 µM
GI50 [51]: 1.95 µM
TGI [51]: 4.11 µM
GI50 [52]: 1.56 µM
TGI [52]: 3.3 µM

O=C(Nc1ccc(Cl)cc1)c1cc2c(cc1Cl)SC(NNCCO)=NS2(=O)=O
TGI [1]: > 100 µM
TGI [2]: > 100 µM
TGI [3]: > 100 µM
TGI [4]: > 100 µM
TGI [5]: > 100 µM
TGI [6]: > 100 µM
TGI [7]: > 100 µM
TGI [53]: > 100 µM
TGI [9]: > 100 µM
TGI [10]: > 100 µM
TGI [11]: > 100 µM
TGI [12]: > 100 µM
TGI [13]: > 100 µM
TGI [14]: > 100 µM
TGI [15]: > 100 µM
TGI [16]: > 100 µM
TGI [17]: > 100 µM
TGI [18]: > 100 µM
TGI [54]: > 100 µM
TGI [19]: > 100 µM
TGI [20]: > 100 µM
TGI [22]: > 100 µM
TGI [23]: > 100 µM
TGI [24]: > 100 µM
TGI [25]: > 100 µM
TGI [26]: > 100 µM
TGI [27]: > 100 µM
TGI [28]: > 100 µM
TGI [29]: > 100 µM
TGI [30]: > 100 µM
TGI [31]: > 100 µM
TGI [32]: > 100 µM
TGI [34]: > 100 µM
TGI [35]: > 100 µM
TGI [36]: > 100 µM
TGI [37]: > 100 µM
TGI [39]: > 100 µM
TGI [40]: > 100 µM
TGI [42]: > 100 µM
TGI [43]: > 100 µM
TGI [55]: > 100 µM
TGI [44]: > 100 µM
TGI [45]: > 100 µM
TGI [46]: > 100 µM
TGI [47]: > 100 µM
TGI [48]: > 100 µM
TGI [49]: > 100 µM
TGI [50]: > 100 µM
TGI [51]: > 100 µM
TGI [56]: > 100 µM
TGI [52]: > 100 µM
TGI [57]: > 100 µM

CCCCCCCCCCCCc1ccsc1-c1ccc(-c2ccc(-c3sc(-c4cc(CCCCCCCCCCCC)c(-c5ccc(-c6ccc(-c7sccc7CCCCCCCCCCCC)s6)s5)s4)cc3CCCCCCCCCCCC)s2)s1
TGI [58]: > 100 µM
TGI [1]: > 100 µM
TGI [2]: > 100 µM
TGI [3]: > 100 µM
TGI [4]: > 100 µM
TGI [5]: > 100 µM
TGI [6]: > 100 µM
TGI [7]: > 100 µM
TGI [8]: > 100 µM
TGI [53]: > 100 µM
TGI [9]: > 100 µM
TGI [10]: > 100 µM
TGI [11]: > 100 µM
TGI [12]: > 100 µM
TGI [13]: > 100 µM
TGI [14]: > 100 µM
TGI [15]: > 100 µM
TGI [16]: > 100 µM
TGI [17]: > 100 µM
TGI [18]: > 100 µM
TGI [54]: > 100 µM
TGI [19]: > 100 µM
TGI [20]: > 100 µM
TGI [21]: > 100 µM
TGI [23]: > 100 µM
TGI [24]: > 100 µM
TGI [25]: > 100 µM
TGI [26]: > 100 µM
TGI [27]: > 100 µM
TGI [28]: > 100 µM
TGI [29]: > 100 µM
TGI [30]: 75.2 µM
TGI [31]: > 100 µM
TGI [32]: > 100 µM
TGI [34]: > 100 µM
TGI [35]: > 100 µM
TGI [36]: > 100 µM
TGI [37]: > 100 µM
TGI [38]: > 100 µM
TGI [39]: > 100 µM
TGI [40]: > 100 µM
TGI [41]: > 100 µM
TGI [42]: > 100 µM
TGI [43]: > 100 µM
TGI [55]: > 100 µM
TGI [44]: > 100 µM
TGI [45]: > 100 µM
TGI [46]: > 100 µM
TGI [47]: > 100 µM
TGI [48]: > 100 µM
TGI [49]: > 100 µM
TGI [50]: > 100 µM
TGI [51]: > 100 µM
TGI [56]: > 100 µM
TGI [52]: > 100 µM
TGI [57]: > 100 µM
